In PMC9594042, “Probing the KRas Switch II Groove by Fluorine NMR Spectroscopy” (ACS Chemical Biology, 2022):
Where two headings read alike, the source gives them in different places.

Key:
KRas^G12D GDP [1] = molecular target: T1, KRas^G12D GDP (Homo sapiens, UniProt P01116, G12D); type: binding; conditions: tested at 60 μM; probe 9 100 µM, protein 2 µM GDP-bound
T1 construct: HRas 1-166 (His-TEV-N; pProEx; ampicillin resistance) and KRas 1-169; His tag with TEV site (N, cleaved yes); made in house; host or cells: E. coli BL21(DE3)

[2] = molecular target: T2, KRas^G12D GDP and KRas^G12D GNP (Homo sapiens, UniProt P01116, G12D); assay: Dual-probe (9 and 12 in mixture) 19F CPMG NMR monitoring of both nucleotide states; type: binding; conditions: 6 μM each state
T2 construct: HRas 1-166 (His-TEV-N; pProEx; ampicillin resistance) and KRas 1-169; His tag with TEV site (N, cleaved yes); made in house; host or cells: E. coli BL21(DE3)
Description: (1 picture or pasted object on this page, not shown here)

KRas^G12D = molecular target: KRas^G12D; design: method as in PMID 34889605; conditions: cited from earlier work
Aqueous solubility = type: physicochemical
KRas^G12D GDP [3] = molecular target: T1, KRas^G12D GDP; assay: 19F CPMG NMR probe binding (I/I0 vs probe concentration), GDP state
Description: (§1) We then sought to determine whether these SIIG-binders could serve as probe ligands to detect KRas proteins by ^19F NMR spectroscopy. One-dimensional CPMG experiments [90-(τ-180-τ)n], in which a spin–echo with delay τ is looped n times, attenuate signal intensity as a function of the transverse relaxation rate (R2) and total spin echo time (2·τ·n). Prior studies have shown that reversible binding of proteins to fluorine-containing small molecules induces an increase in the observed ^19F R2 at long values of τ, which maximize the exchange contribution to R2.[24],[25] […] Further modifications to the probe structure were required to improve its binding affinity and the sensitivity of the ^19F CPMG NMR assay.
(§2) The probe and protein concentrations were varied to determine the dependence on each binding partner. The normalized integrals (I/I0) of the probes decreased exponentially with increasing protein concentrations (Figure 2C, Figure S2C,D). The normalized integrals increased with increasing probe concentrations, and KD values for the probe–protein binding were extracted by fitting the data to eq 1 (Figure 2D, SI).
(§3) All non-linear regressions were performed in Graphpad Prism v9 with data points handled as individual values.
(§4) Constrained constants are noted.
(§5) Integrals (I) from single-point CPMG experiments were calculated by dividing the probe’s absolute integral by the standard’s absolute integral (3-trifluoromethylphenol, 3TFMP) from the same sample. The resulting integral values (I) were averaged (n=3) and then normalized by dividing by the measurement obtained in the absence of protein (I0, n=1 or 3). Errors in I/I 0 and -ln(I/I0) were propagated from the standard devi ations (SD) in I and I 0. In all cases, I and I0 were measured from the same premixed aliquot of probe and 3 -trifluoromethylphenol.
(§6) The KD values of probes were calculated by fitting normalized integrals to equation 1 , where I and I0 are the integrals in the presence and absence of protein, respectively, A is a constant in Hz, t is the total spin-echo time (2·τ·n), and [P]0 and [L]0 are the total concentrations of protein and probe, respectively (constraining [P]0 and t). See the supplementary information for derivation.
(§7) I⁄I = e−A∙t∙[P]0⁄(KD+[L]0) (eq 1) […]
(§8) Preparation of Ras proteins.
(§9) The plasmids for bacterial expression of HRas 1-166 (His-TEV-N; pProEx; ampicillin resistance) and KRas 1-169 (His-TEV-N; pJ411; kanamycin resistance) have been previously published.1 Mutants were obtained by site-directed mutagenesis (Q5, NEB; or Genscript Biotech). BL21(DE3) competent cells were transformed with 1-2 ng of plasmid.
(§10) Cultures for the preparation of natural abundance isotope proteins were grown at 37 °C (A600 0.4 -0.6) in Terrific Broth (Sigma Aldrich), induced (1 mM IPTG), and allowed to express protein overnight at 18 °C. Cultures for the preparation of U -15N proteins were grown and induced in M9 minimal media supplemented with 1 g/L 15NH4Cl (CIL).
(§11) Cells were collected by centrifugation, lysed by sonication (Tris buffer pH 8.0, supplemented with 1 mM PMSF or 1 tablet per 50 ml EDTA-free cOmplete, Roche), and cleared by centrifugation. His -tagged Ras proteins were isolated with Co TALON resin (Takara Bio), the nucl eotide was exchanged to GDP by dialysis (0.5 mM EDTA), the His tag was cleaved with TEV protease, and the protein was purified by anion exchange (Tris buffer pH 8.0, 50 -500 NaCl gradient, HiTrap Q HP, Cytiva) and gel filtration (HEPES storage buffer pH 7.5 , Superdex 75, GE or Cytiva).
(§12) Nucleotide exchange from GDP to GPPNHP (Jena Biosciences) was performed with samples of protein reserved prior to the final gel filtration purification and according to a published procedure comprising EDTA -mediated exchange, desalting, and cleavage of residual GDP with an alkaline phosphatase (CIP or Quick CIP, NEB) 1-4, and then purified by gel filtration. Proteins were concentrated (10k Amicon Ultra, Millipore) to 0.5-1 mM, concentrations were […]
flash frozen in liquid N2 and stored at -80 °C. […]

[4] = molecular target: T3, U-15N KRas^G12D GDP 1-169 (Homo sapiens, UniProt P01116, G12D); assay: 1H-15N HSQC NMR binding; conditions: six peaks fit to single site binding curve; pH 7.4, 298 K, 10% dmso-d6, 50 µM protein; error is SD of six peaks
T3 construct: HRas 1-166 (His-TEV-N; pProEx; ampicillin resistance) and KRas 1-169; His tag with TEV site (N, cleaved yes); made in house; host or cells: E. coli BL21(DE3)

[5] = molecular target: T4, KRas^G12D (both nucleotide states) (Homo sapiens, UniProt P01116, G12D); assay: 19F CPMG NMR detection of KRas^G12D by probes (normalized integrals I/I0); type: binding; conditions: probe 100 μM, KRas^G12D 6 μM; for sensitivity of detection compared to 3 and 4: 160 ms CPMG; for nucleotide state detected: GDP vs GNP
T4 construct: HRas 1-166 (His-TEV-N; pProEx; ampicillin resistance) and KRas 1-169; His tag with TEV site (N, cleaved yes); made in house; host or cells: E. coli BL21(DE3)
Description: as §1
To improve the sensitivity of this method for oncogenic KRas proteins and to explore the relationship between structure and nucleotide-state specificity, we synthesized a series of derivatives of 3 and 4 with varied structure at the aryl ring expected to be buried deepest within the pocket, and these derivatives were evaluated by CPMG NMR spectroscopy against both nucleotide states of KRas^G12D (6 μM; Figure 2A,B). […] Probe 9 relaxed more slowly in the absence of protein (R2,free = 2.4 Hz) than did compounds containing the C-5 hydroxy group (R2,free = 6.3 Hz for 4, 4.4 Hz for 12, and 5.0 Hz for 17), increasing the sensitivity and dynamic range of integral measurements with this probe (Figure S2). Furthermore, probe 9 was confirmed to be a tighter binder to the SIIG of U–^15N KRas^G12D GDP by HSQC NMR compared to 4 (Figure S3).
Figure 2 SAR of SIIG binders enables more sensitive detection of KRas^G12D. (a) Chemical structures of SIIG binders. (b) Normalized integrals (I/I0) from ^19F CPMG NMR spectra (160 ms) of probes (100 μM) with KRas^G12D (6 μM); values are means ± errors propagated from SD (n = 3). (c) Effect of varying KRas^G12D concentration on I/I0; values are means ± errors propagated from SD (n = 3). (d) Effect of varying probe concentration on I/I0; [P]0 = 6 μM for probes 9 and 12, 3 μM for probe 17; individual points shown (n = 3); data fit to eq 1 (SI).
as §8, §9, §10, §11, §12
flash frozen in liquid N2 and stored at -80 °C.
Storage buffer: 20 mM HEPES, 150 mM NaCl, 1 mM MgCl2. Titrated to pH 7.5 with NaOH. Storage buffer for U- […]

[6] = system: panel of KRas proteins (G12 and Q61 mutations), GDP and GNP states; assay: 19F CPMG NMR detection of a panel of KRas and HRas proteins; type: binding; conditions: probe 100 μM, protein 6 μM, 160 ms CPMG
Experimental: The closely related protein HRas 1–166 contains only one residue difference within the SIIG binding site (Q95 in HRas vs H95 in KRas). HRas was only weakly detected by this method; however, the results with HRas^Q95H closely matched those obtained with KRas^WT.
Figure 3 ^19F CPMG NMR spectroscopy detects a variety of oncogenic KRas proteins. Normalized integrals (I/I0) from ^19F CPMG NMR spectra (160 ms) of 100 μM 9 (a), 12 (b), or 17 (c) in the presence of 6 μM KRas or HRas proteins; values are means ± errors propagated from the SDs of I and I0 (n = 3).
as §8, §9, §10
Cells were collected by centrifugation, lysed by sonication (Tris buffer pH 8.0, supplemented with 1 mM PMSF or 1 tablet per 50 ml EDTA-free cOmplete, Roche), and cleared by centrifugation. […]
1D 1H (ZGESGP) and 2D 1H-15N fast HSQC (FHSQCCF3GPPH, NS = 8, TDF1 = 256, GARP decoupling) spectra were recorded at 298 K on an 800 MHz Bruker Avance NEO spectrometer equipped with an actively shielded Z-gradient 5 mm TCI cryoprobe (H&F/C/N) using programs from the pulse program library (TopSpin 4.0.8). Spectra were processed and analyzed with Bruker Topspin 4.0 and CCPNMR Analysis v3.5 1H chemical shifts were referenced to 1 mM DSS at 0 ppm; 15N chemical shifts were referenced indirectly with Ξ = 0.101329118. […]

KRas^G12D GNP = molecular target: T5, KRas^G12D GNP (Homo sapiens, UniProt P01116, G12D); assay: 19F CPMG NMR probe binding (I/I0 vs probe concentration), GNP state
T5 construct: HRas 1-166 (His-TEV-N; pProEx; ampicillin resistance) and KRas 1-169; His tag with TEV site (N, cleaved yes); made in house; host or cells: E. coli BL21(DE3)
Description: as §1, §2, §3, §4, §5, §6, §7, §8
The plasmids for bacterial expression of HRas 1-166 (His-TEV-N; pProEx; ampicillin resistance) and KRas 1-169 (His-TEV-N; pJ411; kanamycin resistance) have been previously published.1 Mutants were obtained by site-directed mutagenesis (Q5, NEB; or Genscript Biotech). BL21(DE3) competent cells were transformed with 1-2 ng of plasmid. […]

[7] = 19F CPMG 160 ms, varying probe concentration, [P]0 = 6 μM for 9 and 12, 3 μM for 17, fit to eq 1, read-out: KD
[8] = non-linear regression eq 1, t=0.16 s, read-out: KD (extracted value, Table S1)
[9] = 19F CPMG 160 ms, varying probe concentration, [P]0 = 6 μM for 12, 3 μM for 17, fit to eq 1, read-out: KD

| Structure (SMILES) | Kd (KRas^G12D GDP [3]; [7]) [µM] | Kd (KRas^G12D GDP [3]; [8]) [µM] | sensitivity of detection compared to 3 and 4 [5] | nucleotide state detected [5] | detection of oncogenic KRas proteins [6] | also measured |
| --- | --- | --- | --- | --- | --- | --- |
| C=CC(=O)N1CC2(CC(n3nc(-c4ccc5c(cnn5C)c4)c(-c4c(Cl)c(C)cc5[nH]ncc45)c3C)C2)C1 [JDQ443] |  |  |  |  |  | occupancy of the SIIP of KRas^G12D (KRas^G12D GDP [1]): did not occupy |
| C#Cc1c(F)ccc2cc(O)cc(-c3ncc4c(N5CC6CCC(C5)N6)nc(OC[C@@]56CCCN5C[C@H](F)C6)nc4c3F)c12 [MRTX1133] |  |  |  |  |  | nucleotide state occupied ([2]; 9 and 12 50 μM each, MRTX849 60 μM, MRTX1133 in excess 15 μM, KD2 30 μM): occupied both nucleotide states; nucleotide state occupied ([2]; substoichiometric quantities (2, 4, and 6 μM)): selectively occupied the GDP-state; Ki (KRas^G12D; GDP state): < 1 pM; binding affinity (KRas^G12D): subpicomolar |
| C=CC(=O)Nc1cc(Cl)cc(NC(=O)c2cnn(-c3ccc(OC)cc3)c2C(F)(F)F)c1 [compound 2] |  |  |  |  |  | aqueous solubility (Aqueous solubility): very low |
| NCCNC(=O)COCCOc1ccc(-n2ncc(C(=O)Nc3ccc(O)c(Cl)c3)c2C(F)(F)F)cc1 [compound 9] | 200 | 204 | increased sensitivity | specifically detected the GDP state | most sensitively detected the GDP state of KRas^G12D | Kd [4]: 580 ± 280 µM |
| Cc1c(Cl)cc(O)cc1NC(=O)c1cnn(-c2ccc(OCCOCC(=O)NCCN)cc2)c1C(F)(F)F [compound 12] | 310 | 307 | increased sensitivity | detected both nucleotide states with similar sensitivity | detected both nucleotide states of all oncogene products tested | Kd (KRas^G12D GNP; [9]): 780 µM; Kd (KRas^G12D GNP; [8]): 778 µM |
| NCCNC(=O)COCCOc1ccc(-n2ncc(C(=O)Nc3cc(O)cc(Cl)c3C3CC3)c2C(F)(F)F)cc1 [compound 14] |  |  | increased sensitivity |  |  |  |
| Cc1c(NC(=O)c2cnn(-c3ccc(OCCOCC(=O)NCCN)cc3)c2C(F)(F)F)ccc(O)c1Cl [compound 15] |  |  | increased sensitivity |  |  |  |
| NCCNC(=O)COCCOc1ccc(-n2ncc(C(=O)Nc3cc(O)cc4ccccc34)c2C(F)(F)F)cc1 [compound 17] | 350 | 352 | increased sensitivity | detected both nucleotide states with similar sensitivity | detected both nucleotide states of all oncogene products tested | Kd (KRas^G12D GNP; [9]): 390 µM; Kd (KRas^G12D GNP; [8]): 393 µM |
